In US20230321067A1, “DOSING REGIMEN COMPRISING 3-(1-OXOISOINDOLIN-2-YL)PIPERIDINE-2,6-DIONE DERIVATIVES” (Novartis AG, priority 2020, published 2023):

Key:
IKZF2 [1] = molecular target: T1, IKZF2 (Homo sapiens, UniProt Q96SW2+Q9UKS7); assay: Multi-dose PK/PD study in human PBMC adoptive transfer mouse model harboring MDA-MB231 xenografts: IKZF2 expression in human CD4+FOXP3+ regulatory T cells (FIG. 6, 7); type: in vivo; set-up: endogenous in cells; host or cells: primary human PBMCs; details: 14 daily oral doses of 0.3, 1, 3 and 30 mg/kg, hPBMC AdT mouse model
Procedure: FIG. 6 is a pictorial representation of the multi-dose PK/PD study design in the human PBMC adoptive transfer mouse model harboring MDA-MB231 xenografts. Fourteen consecutive daily doses of Compound I-57 was administered at 0.3 mg/kg, 1 mg/kg, 3 mg/kg or 30 mg/kg.
FIG. 7 is a graph showing the change in the IKZF2 expression in human CD4+FOXP3+ regulatory T cells isolated from MDA-MB231 tumor xenografts (Tumor) or blood (Periphery) following 14 daily oral doses of 0.3, 1, 3 and 30 mg/kg Compound I-57 administered to the hPBMC AdT model.

IKZF2 [2] = molecular target: T1, IKZF2; assay: IKZF2 in tumor-infiltrating lymphocytes by IHC, hPBMC AdT model; type: in vivo, NSG mice with human PBMCs; set-up: endogenous in cells; host or cells: human lymphocytes (CD4+FOXP3+ Tregs; total tumor-infiltrating lymphocytes) from healthy-donor PBMC transferred into NSG mice; details: 24 h post the 14th dose
Procedure: IKZF2 protein levels in total tumor-infiltrating lymphocytes were also assessed by immunohistochemistry (IHC) at 24 h post the 14th dose of 1, 3 or 30 mg/kg I-57. […] Overall, IKZF2 degradation assessed by IHC was generally consistent with our findings in Tregs by flow cytometry, though dose dependency was less apparent. Together, the data support the finding of profound I-57-mediated IKZF2 degradation in tumor-infiltrating lymphocytes (FIG. 8A and FIG. 8B).

peripheral T cells = assay: Immunization response (KLH/Squalene) in cynomolgus monkey: anti-KLH IG and Ki67 T cells; type: in vivo
Procedure: The PK/PD relationship of I-57 was further examined in cynomolgus monkeys after repeated daily oral doses of 0.1 and 3 mg/kg. In this study, a cohort of animals were initially immunized with an antigen-adjuvant mixture (KLH/Squalene). The experiment was designed to assess the effect of I-57 exposure, and the resulting IKZF2 degradation, on immune response during immunization to test the hypothesis that IKZF2 degradation would result in increased proliferation of stimulated T-cells. In the experiment, daily I-57 oral treatment was initiated 5 days after immunization. An immunization booster dose was administered on day 15. I-57 plasma concentration and IKZF2 expression (as determined by flow cytometry) in FOXP3+ T cells from PBMCs were determined (FIG. 9A and FIG. 9B).
In order to measure the impact of I-57 treatment on the immune response following immunization, serum anti-KLH IG levels were measured longitudinally, and levels of T cell activation were measured in PBMCs by flow cytometry. […] In contrast, the proportion of proliferative peripheral T cells (denoted by Ki67 staining) was increased in the highest dose group (3 mg/kg) in the recall response phase, compared to immunization alone.

FIZ1 = molecular target: T2, FIZ1 (Homo sapiens, UniProt Q96SL8); assay: Whole cell proteomic analysis in 293T cells and subsequent analyses: FIZ1; type: cell-based
T2 construct: endogenous in cells; host or cells: 293T
Procedure: Other potential degradation targets of I-57 were evaluated in 293T cells using whole cell proteomic analysis. […] Subsequent analyses have confirmed that FIZ1 is degraded by about 50% at a 10 μM concentration of I-57 ([I-57 Investigator's Brochure]). […] FIZ1 is expressed in the neural retina where it transcriptionally represses the differentiation of photoreceptors. FIZ1 is also expressed in non-ocular tissues with unknown function.

[3] = ECG (QTc) in monkeys, single dose and 4-week GLP repeat dose study; type: in vivo, monkey
Procedure: The risk of possible QTc interval prolongation at the starting dose is therefore considered low. QT prolongation may become clinically significant during escalation but are not anticipated to be dose limiting until doses at or above 640 mg. Monitoring and other measures to mitigate potential risk of arrhythmia is addressed in Example 3 below.

CYP2C19 = CYP2C19 (Homo sapiens, UniProt P33261); assay: CYP inhibition: CYP2C19; type: in vitro ADME; details: I-57 concentrations of up to 100 μM
CYP2C19, sequence (P33261 whole entry): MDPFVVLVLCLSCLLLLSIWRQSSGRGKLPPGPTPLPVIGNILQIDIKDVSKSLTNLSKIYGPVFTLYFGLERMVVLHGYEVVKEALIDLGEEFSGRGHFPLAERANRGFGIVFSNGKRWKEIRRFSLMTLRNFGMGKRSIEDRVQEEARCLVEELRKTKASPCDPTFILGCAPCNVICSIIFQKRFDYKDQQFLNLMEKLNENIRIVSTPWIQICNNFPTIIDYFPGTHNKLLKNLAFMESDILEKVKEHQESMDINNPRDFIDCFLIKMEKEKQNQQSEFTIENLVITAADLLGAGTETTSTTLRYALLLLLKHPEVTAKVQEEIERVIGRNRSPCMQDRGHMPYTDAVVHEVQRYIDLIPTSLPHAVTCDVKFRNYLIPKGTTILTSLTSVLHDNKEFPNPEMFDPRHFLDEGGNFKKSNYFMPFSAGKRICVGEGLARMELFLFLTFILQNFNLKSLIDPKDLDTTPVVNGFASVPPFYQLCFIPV

T1 sequence (Q9UKS7 whole entry): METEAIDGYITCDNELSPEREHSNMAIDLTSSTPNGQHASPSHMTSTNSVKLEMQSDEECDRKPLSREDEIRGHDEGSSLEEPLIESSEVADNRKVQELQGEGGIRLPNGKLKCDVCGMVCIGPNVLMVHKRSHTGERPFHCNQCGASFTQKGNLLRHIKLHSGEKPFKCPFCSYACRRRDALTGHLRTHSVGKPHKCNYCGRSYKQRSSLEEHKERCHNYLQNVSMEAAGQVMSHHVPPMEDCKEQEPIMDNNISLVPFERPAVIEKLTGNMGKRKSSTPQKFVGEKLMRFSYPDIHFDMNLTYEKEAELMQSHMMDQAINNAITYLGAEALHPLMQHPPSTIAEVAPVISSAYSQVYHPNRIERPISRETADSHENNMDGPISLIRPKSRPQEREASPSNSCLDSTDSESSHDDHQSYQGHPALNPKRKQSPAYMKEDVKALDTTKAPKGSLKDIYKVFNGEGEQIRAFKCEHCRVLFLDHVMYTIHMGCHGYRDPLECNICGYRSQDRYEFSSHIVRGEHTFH
T1 sequence (Q96SW2 whole entry): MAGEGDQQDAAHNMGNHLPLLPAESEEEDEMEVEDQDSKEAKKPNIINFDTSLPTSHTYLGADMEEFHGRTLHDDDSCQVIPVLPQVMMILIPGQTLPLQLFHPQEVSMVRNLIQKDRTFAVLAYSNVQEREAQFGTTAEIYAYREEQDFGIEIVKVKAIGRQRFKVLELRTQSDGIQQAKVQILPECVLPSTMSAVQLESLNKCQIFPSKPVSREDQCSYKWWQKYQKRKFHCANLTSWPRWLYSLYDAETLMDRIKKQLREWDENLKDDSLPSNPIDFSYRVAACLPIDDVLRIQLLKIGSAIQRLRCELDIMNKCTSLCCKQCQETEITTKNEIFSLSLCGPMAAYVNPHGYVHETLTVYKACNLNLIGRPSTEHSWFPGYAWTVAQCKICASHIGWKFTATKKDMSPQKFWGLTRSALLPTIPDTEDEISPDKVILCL
T1 sequence (Q16531 whole entry partner): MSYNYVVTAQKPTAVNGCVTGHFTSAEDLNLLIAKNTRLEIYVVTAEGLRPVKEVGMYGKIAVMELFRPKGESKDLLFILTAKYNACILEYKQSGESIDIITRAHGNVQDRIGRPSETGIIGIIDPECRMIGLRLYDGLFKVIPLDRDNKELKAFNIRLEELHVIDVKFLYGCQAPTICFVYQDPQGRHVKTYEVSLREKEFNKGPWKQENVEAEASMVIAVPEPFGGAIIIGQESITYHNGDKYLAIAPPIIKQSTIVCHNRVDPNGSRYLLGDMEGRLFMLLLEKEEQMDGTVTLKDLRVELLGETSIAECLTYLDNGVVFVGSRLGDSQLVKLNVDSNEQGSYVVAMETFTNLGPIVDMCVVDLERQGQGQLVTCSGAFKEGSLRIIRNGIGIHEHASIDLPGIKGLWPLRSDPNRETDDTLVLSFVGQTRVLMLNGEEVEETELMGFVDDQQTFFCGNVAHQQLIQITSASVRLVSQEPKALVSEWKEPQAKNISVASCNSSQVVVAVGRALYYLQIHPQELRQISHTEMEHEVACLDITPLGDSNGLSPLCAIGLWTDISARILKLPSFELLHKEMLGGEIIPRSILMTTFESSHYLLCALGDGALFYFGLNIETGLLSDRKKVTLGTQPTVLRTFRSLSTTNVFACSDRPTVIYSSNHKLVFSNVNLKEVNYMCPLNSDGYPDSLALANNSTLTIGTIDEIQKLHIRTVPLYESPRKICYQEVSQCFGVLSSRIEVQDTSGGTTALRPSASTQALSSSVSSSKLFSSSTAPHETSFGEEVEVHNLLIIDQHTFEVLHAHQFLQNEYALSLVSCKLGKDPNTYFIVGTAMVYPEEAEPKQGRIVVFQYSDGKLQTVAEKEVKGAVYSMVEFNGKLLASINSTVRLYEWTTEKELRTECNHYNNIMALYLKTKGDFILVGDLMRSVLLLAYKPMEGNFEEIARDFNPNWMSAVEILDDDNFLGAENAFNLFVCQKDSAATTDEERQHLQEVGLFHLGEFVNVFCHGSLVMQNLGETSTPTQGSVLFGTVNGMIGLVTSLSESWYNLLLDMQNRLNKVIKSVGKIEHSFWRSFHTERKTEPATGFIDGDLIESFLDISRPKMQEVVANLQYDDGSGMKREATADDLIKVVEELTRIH
T2 sequence (Q96SL8 whole entry): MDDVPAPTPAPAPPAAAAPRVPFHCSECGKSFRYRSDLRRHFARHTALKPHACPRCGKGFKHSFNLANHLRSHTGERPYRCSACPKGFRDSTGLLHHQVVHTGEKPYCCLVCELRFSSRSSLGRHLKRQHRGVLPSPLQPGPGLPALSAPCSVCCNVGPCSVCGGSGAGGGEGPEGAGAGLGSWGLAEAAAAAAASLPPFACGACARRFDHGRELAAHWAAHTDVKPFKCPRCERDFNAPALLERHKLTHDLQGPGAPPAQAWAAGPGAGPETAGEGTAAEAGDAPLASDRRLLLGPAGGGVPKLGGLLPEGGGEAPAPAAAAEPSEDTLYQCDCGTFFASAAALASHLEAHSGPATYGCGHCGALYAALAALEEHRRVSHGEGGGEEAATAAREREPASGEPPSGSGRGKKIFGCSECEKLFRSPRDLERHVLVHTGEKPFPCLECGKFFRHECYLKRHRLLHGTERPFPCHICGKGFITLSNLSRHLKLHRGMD

O=C1CCC(N2Cc3cc(C4CCN(Cc5ccccc5)CC4)ccc3C2=O)C(=O)N1 (centres unmarked) [Compound I-57, 3-(5-(1-benzylpiperidin-4-yl)-1-oxoisoindolin-2-yl)piperidine-2,6-dione]
IKZF2 degradation (reduction of the percentage of IKZF2 positive Tregs) (IKZF2 [1]; peripheral blood): robust dose and exposure-dependent IKZF2 degradation
IKZF2 degradation (reduction of the percentage of IKZF2 positive Tregs) (IKZF2 [1]; tumor (MDA-MB231 xenografts)): robust dose and exposure-dependent IKZF2 degradation
IKZF2 degradation in total tumor-infiltrating lymphocytes (IKZF2 [2]; 30 mg/kg): approximately 85%
IKZF2 levels in total tumor-infiltrating lymphocytes (IKZF2 [2]; all dose levels (1, 3 or 30 mg/kg)): Robust reduction in IKZF2 levels
proportion of proliferative peripheral T cells (Ki67 staining) (peripheral T cells; 3 mg/kg, recall response phase, compared to immunization alone): increased
Anti-IgG titers elicited by the immunization (serum anti-KLH IG) (peripheral T cells; KLH/Squalene immunization, daily I-57): not further enhanced
degradation of FIZ1 (FIZ1; 10 μM I-57, subsequent analyses): about 50%
degradation of FIZ1 (FIZ1; 293T cells, whole cell proteomic analysis): degraded
cardiac electrical instability or wave abnormality [3]: No cardiac electrical instability or wave abnormality was observed
QT effects ([3]; 3 mg/kg): no QT effects were noted
free Cmax in monkeys at 3 mg/kg relative to free Cmax predicted at the clinical starting dose of 20 mg ([3]; 3 mg/kg): ~8.4 times
time of highest magnitude of the QTc effect ([3]; coinciding with Tmax): 0.5 to 5.5 h
increase in QTc interval ([3]; doses >10 mg/kg, single dose and 4-week GLP repeat dose study): at least 30 mSec
inhibition of CYP2C19 (CYP2C19): very little and no inhibition
